Consider eight compounds from US7132409B2, “Adenosine derivatives and use thereof” (Toa Eiyo Ltd., priority 2000, dated 2006).

Converted amounts (≈) assume the structure as drawn. Like-named read-outs stand apart in the source and are kept apart here. Where only a bound is given, the exact number is not on record here.

Data set [1] deals with ocular tension of Japanese white rabbits. As to the kind of experiment: Test Example 1: effect of lowering ocular tension after instillation in rabbit eyes. The following applies: 0.1% solution, 50 μL instilled to one eye; for AUC (area under the curve of time versus change in difference in ocular tension, treated eye vs eye drop base eye): up to 480 min. It counts as in vivo. The method, then: Each of the mentioned compounds was dissolved in saline containing polysorbate 80 (hereinafter the saline will be referred to as “eye drop base A”) or in a borate buffer (pH 7.0) containing polysorbate 80 (hereinafter the solution will be referred to as “eye drop base B”) (polysorbate 80 content of each base: 5 mg/mL).
Japanese white rabbits (male; Kitayama Labes Co., Ltd.) (weight: 2.7–3.9 kg) were employed in the test for measuring ocular tension. The rabbits were retained in a box-type fixation apparatus during the test.
The ocular tension of each rabbit was measured by use of a Model 30 Classic Pneumatonometer (product of Mentor) without anesthesia. Before the ocular tension was measured, 0.4% oxybuprocaine hydrochloride (Benoxil 0.4% eye drop solution, product of Santen Pharmaceutical Co., Ltd.) was instilled into the eyes of each rabbit, to thereby anesthetize the surface of the cornea. The ocular tension of each rabbit was measured several times at predetermined intervals. Three measurements of ocular tension, as measured when a constant value was reached, were averaged, and the average value was employed as representing the ocular tension.
A 0.1% solution of each test compound (50 μL) was instilled to one eye of each of the respective rabbits, and simultaneously the eye drop base (50 μL) was instilled to the other eye. The ocular tensions of both eyes were measured 60 minutes before instillation of the test compound; 0 minute immediately before instillation; and 30, 60, 90, 120, 150, 180, 240, 300, 360, 420, and 480 minutes after instillation. Four to six rabbits were employed for each test compound. For control, each eye drop base was instilled to both eyes of rabbits, and the ocular tension thereof was measured in a manner similar to that described above.
For each test compound, the effect of lowering ocular tension was evaluated on the basis of the following values: the area under the curve of time versus change in difference between the ocular tension of the eye to which the test compound was instilled and that of the eye to which the eye drop base was instilled (hereinafter the area will be abbreviated as AUC (mmHg•min)); and the maximum value of difference between the ocular tension of the eye to which the test compound was instilled and that of the eye to which the eye drop base was instilled (hereinafter the value will be abbreviated as Emax (mmHg)).

For data set [2] the following is noted: pH 7.
Description: (§1) Each of the test compounds was dispersed in an isotonic borate buffer (pH 7.0). The resultant mixture was shaken at 20° C. for 6 hours and then centrifuged. The concentration of the test compound in the supernatant was measured through HPLC for calculation of saturation solubility of the compound.
(§2) Detector: UV absorptiometer (wavelength: 270 nm)
(§3) Column: ODS column (inner diameter 4.6 mm, length 15 cm)
(§4) Mobile phase: An acetonitrile/triethylammonium acetate buffer (pH 7) mixture
Data set [3] can be described thus: Test Example 2: saturation solubility in isotonic borate buffer (HPLC). The conditions noted are these: for solubility at 6 h: isotonic borate buffer, 20 °C, pH 7, aqueous buffer, thermodynamic from solid.
Description: as §1, §2, §3, §4
In data set [4] the test system is optic nerve failure. As to the kind of experiment: Model of retina failure induced through reperfusion after transient ischemia in rat. It counts as in vivo.
For data set [5], the system named is blood flow in the retina. In words: Effects on blood vessel diameter and blood flow in the retina of rabbits. It counts as in vivo.
Setting [6] is: eye drop base B (borate buffer pH 7.0 with polysorbate 80).
[7] abbreviates: eye drop base A (saline with polysorbate 80).

For `N#CCCCCCC#Cc1nc(N)c2ncn([C@@H]3O[C@H](CO)[C@@H](O)[C@H]3O)c2n1` [Referential Compound 2, 2-(7-cyano-1-heptyn-1-yl)adenosine], in data set [1] (setting [6]), the “Emax (maximum difference in ocular tension, treated eye vs eye drop base eye)” value is reported as −2.6 mmHg and the “AUC (area under the curve of time versus change in difference in ocular tension, treated eye vs eye drop base eye)” value is given as −844.5 mmHg · min.
As to `Nc1nc(C#CC2CCCC2)nc2c1ncn2[C@@H]1O[C@H](CO)[C@@H](O)[C@H]1O` [Referential Compound 3, 2-cyclopentylethynyladenosine], in data set [1] (setting [6]), the “Emax (maximum difference in ocular tension, treated eye vs eye drop base eye)” value is given as −4.4 mmHg and the “AUC (area under the curve of time versus change in difference in ocular tension, treated eye vs eye drop base eye)” value is on record as −1532.7 mmHg · min. The same compound displayed a Saturation solubility in data set [2] of 1400 µg/mL.
`CCCCC#Cc1nc(N)c2ncn([C@@H]3O[C@H](C(=O)NC)[C@@H](O)[C@H]3O)c2n1` [Referential Compound 6, 2-(1-hexyn-1-yl)adenosine-4′-methylcarboxamide]: the Saturation solubility in data set [3] (isotonic borate buffer pH 7.0, shaken at 20° C. for 6 hours) stood at 500 µg/mL. Further, in data set [1] (setting [7]), the “Emax (maximum difference in ocular tension, treated eye vs eye drop base eye)” value is listed as −6.0 mmHg and the “AUC (area under the curve of time versus change in difference in ocular tension, treated eye vs eye drop base eye)” value was −1838.3 mmHg · min.
On to `N#CCCCC#Cc1nc(N)c2ncn([C@@H]3O[C@H](CO)[C@@H](O)[C@H]3O)c2n1` [Referential Compound 1, 2-(5-cyano-1-pentyn-1-yl)adenosine], for which, in data set [1] (setting [6]), the “Emax (maximum difference in ocular tension, treated eye vs eye drop base eye)” value is reported as −3.0 mmHg and the “AUC (area under the curve of time versus change in difference in ocular tension, treated eye vs eye drop base eye)” value is −584.0 mmHg · min.
On to `N#CCCCCC#Cc1nc(N)c2ncn([C@@H]3O[C@H](COP(=O)([O-])[O-])[C@@H](O)[C@H]3O)c2n1.[Na+].[Na+]` [Compound 2, disodium 2-(6-cyano-1-hexyn-1-yl)adenosine 5′-monophosphate], for which, in data set [3], the solubility at 6 h was > 200000 µg/mL. Further, in data set [1] (setting [6]), the “Emax (maximum difference in ocular tension, treated eye vs eye drop base eye)” value is listed as −6.0 mmHg and the “AUC (area under the curve of time versus change in difference in ocular tension, treated eye vs eye drop base eye)” value was −1965.0 mmHg · min.
For the compound `Nc1nc(C#CCCCCN2C(=O)c3ccccc3C2=O)nc2c1ncn2[C@@H]1O[C@H](CO)[C@@H](O)[C@H]1O` [Referential Compound 5, 2-(6-phthalimidyl-1-hexyn-1-yl)adenosine], in data set [3], the solubility at 6 h was 700 µg/mL (≈ 1420 µM). Moreover, in data set [1] (setting [7]), the “Emax (maximum difference in ocular tension, treated eye vs eye drop base eye)” value is recorded as −6.3 mmHg and the “AUC (area under the curve of time versus change in difference in ocular tension, treated eye vs eye drop base eye)” value is on record as −1471.0 mmHg · min.
Compound `CCCCCCC#Cc1nc(N)c2ncn([C@@H]3O[C@H](CO)[C@@H](O)[C@H]3O)c2n1` [Referential Compound 4, 2-(1-octyn-1-yl)adenosine] showed a solubility at 6 h in data set [3] of 300 µg/mL (≈ 799 µM). Also, in data set [1] (setting [7]), the “Emax (maximum difference in ocular tension, treated eye vs eye drop base eye)” value is recorded as −4.2 mmHg and the “AUC (area under the curve of time versus change in difference in ocular tension, treated eye vs eye drop base eye)” value is given as −1093.5 mmHg · min.
`N#CCCCCC#Cc1nc(N)c2ncn([C@@H]3O[C@H](CO)[C@@H](O)[C@H]3O)c2n1` [Compound 1, 2-(6-cyano-1-hexyn-1-yl)adenosine] yielded a melting point of 91 to 94 °C. Besides, the solubility at 6 h in data set [3] was determined as 16600 µg/mL (≈ 44600 µM). Also, the “effects of protecting optic nerve failure” value in data set [4] is recorded as “particularly excellent effects of protecting optic nerve failure”. In addition, in data set [5], the “effects of promoting vasodilatation and blood flow in the retina” value was “particularly excellent effects of promoting vasodilatation and blood flow in the retina”. In data set [1] (setting [6]), the “Emax (maximum difference in ocular tension, treated eye vs eye drop base eye)” value is −4.3 mmHg and the “AUC (area under the curve of time versus change in difference in ocular tension, treated eye vs eye drop base eye)” value is −1303.1 mmHg · min.
